Laboratory results reported in ChEMBL document CHEMBL3885861, “Open TG-GATES”.

Species: Rattus norvegicus
Experiment: Open TG-GATES - Regimen: Daily Repeat
Format: toxicity, organism-based, Sprague-Dawley
Set-up: regimen Daily Repeat, gender Male, age 6 weeks
Settings: in vivo, po, 0 mg/kg, route gavage, dose level Control; for APTT / Bas / Eos / Fbg / Hb / Ht / Lym / MCH / MCHC / MCV / Mono / Neu / PT / Plat / RBC / Ret / WBC: tissue Blood; for KIDNEY_L / KIDNEY_R / KIDNEY_TOTAL: tissue Kidney; for LIVER: tissue Liver; for ALP / AST / BUN / CRE / Ca / Cl / DBIL / GLC / IP / K / LDH / Na / PL / RALB / TBIL / TC / TG / TP / gamma-GTP: tissue Plasma

Work on `COc1ccc2[nH]c([S+]([O-])Cc3ncc(C)c(OC)c3C)nc2c1` (stereo not drawn) [OMEPRAZOLE] yielded a TERMINAL_BW (72 h, time 3 day) of 237.1 g, an APTT (72 h, time 3 day) of 19.5 s and a Bas (72 h, time 3 day) of 0%. The Eos (72 h, time 3 day) was 1.2%, the Fbg (72 h, time 3 day) was 210.6 mg/dL and the Hb (72 h, time 3 day) was 13.1 g/dL. The Ht (72 h, time 3 day) was 38%, the Lym (72 h, time 3 day) was 80.8% and the MCH (72 h, time 3 day) was 21.2 pg. It also gave an MCHC (72 h, time 3 day) of 34.4%, an MCV (72 h, time 3 day) of 61.6 fL and a Mono (72 h, time 3 day) of 3%. The Neu (72 h, time 3 day) was 14.8%, the PT (72 h, time 3 day) was 12.2 s and the Plat (72 h, time 3 day) was 128.5 x10_4/uL. For the same compound, the RBC (72 h, time 3 day) was 616.6 x10_4/ul, the Ret (72 h, time 3 day) was 5.4% and the WBC (72 h, time 3 day) was 91.3 x10_2/uL. It also gave a KIDNEY_L (72 h, time 3 day) of 1 g, a KIDNEY_R (72 h, time 3 day) of 1.1 g and a KIDNEY_TOTAL (72 h, time 3 day) of 2.1 g. The LIVER (72 h, time 3 day) was 11.7 g, the ALP (72 h, time 3 day) was 960.2 IU/L and the AST (72 h, time 3 day) was 66.4 IU/L. It also gave a BUN (72 h, time 3 day) of 15.2 mg/dL, a CRE (72 h, time 3 day) of 0.4 mg/dL and a Ca (72 h, time 3 day) of 10.7 mg/dL. It also gave a Cl (72 h, time 3 day) of 102.2 meq/L, a DBIL (72 h, time 3 day) of 0.07 mg/dL and a GLC (72 h, time 3 day) of 233.8 mg/dL. It also gave an IP (72 h, time 3 day) of 7 mg/dL, a K (72 h, time 3 day) of 3.6 meq/L and an LDH (72 h, time 3 day) of 162.8 IU/L. It also gave a Na (72 h, time 3 day) of 141.6 meq/L, a PL (72 h, time 3 day) of 144.4 mg/dL and an RALB (72 h, time 3 day) of 3.3 g/dL. The TBIL (72 h, time 3 day) was 0.1 mg/dL, the TC (72 h, time 3 day) was 72.2 mg/dL and the TG (72 h, time 3 day) was 91.6 mg/dL. For the same compound, the TP (72 h, time 3 day) was 5.6 g/dL, the gamma-GTP (72 h, time 3 day) was 1.2 IU/L and the TERMINAL_BW ([…], time 7 day) was 272.8 g. The TERMINAL_BW ([…], time 14 day) was 317.5 g, the TERMINAL_BW ([…], time 28 day) was 379.8 g and the APTT ([…], time 7 day) was 20.8 s. The Bas ([…], time 7 day) was 0%, the Eos ([…], time 7 day) was 1% and the Fbg ([…], time 7 day) was 226.4 mg/dL. The Hb ([…], time 7 day) was 13.9 g/dL, the Ht ([…], time 7 day) was 40.3% and the Lym ([…], time 7 day) was 79.2%. For the same compound, the MCH ([…], time 7 day) was 20.8 pg, the MCHC ([…], time 7 day) was 34.5% and the MCV ([…], time 7 day) was 60.2 fL. It also gave a Mono ([…], time 7 day) of 3%, a Neu ([…], time 7 day) of 16.2% and a PT ([…], time 7 day) of 11.9 s. For the same compound, the Plat ([…], time 7 day) was 124.2 x10_4/uL, the RBC ([…], time 7 day) was 669.6 x10_4/ul and the Ret ([…], time 7 day) was 4.8%. For the same compound, the WBC ([…], time 7 day) was 124.1 x10_2/uL, the APTT ([…], time 14 day) was 19.5 s and the Bas ([…], time 14 day) was 0%. For the same compound, the Eos ([…], time 14 day) was 1%, the Fbg ([…], time 14 day) was 215.4 mg/dL and the Hb ([…], time 14 day) was 14.7 g/dL. For the same compound, the Ht ([…], time 14 day) was 42.6%, the Lym ([…], time 14 day) was 79% and the MCH ([…], time 14 day) was 20.8 pg. It also gave an MCHC ([…], time 14 day) of 34.6%, an MCV ([…], time 14 day) of 59.9 fL and a Mono ([…], time 14 day) of 2.6%. It also gave a Neu ([…], time 14 day) of 16.2%, a PT ([…], time 14 day) of 12.3 s and a Plat ([…], time 14 day) of 123.5 x10_4/uL. For the same compound, the RBC ([…], time 14 day) was 711 x10_4/ul, the Ret ([…], time 14 day) was 3.9% and the WBC ([…], time 14 day) was 94.4 x10_2/uL. It also gave an APTT ([…], time 28 day) of 20.9 s, a Bas ([…], time 28 day) of 0% and an Eos ([…], time 28 day) of 1%. It also gave a Fbg ([…], time 28 day) of 228.8 mg/dL, a Hb ([…], time 28 day) of 15.6 g/dL and a Ht ([…], time 28 day) of 45%. The Lym ([…], time 28 day) was 83.2%, the MCH ([…], time 28 day) was 19.4 pg and the MCHC ([…], time 28 day) was 34.8%. It also gave an MCV ([…], time 28 day) of 55.9 fL, a Mono ([…], time 28 day) of 2% and a Neu ([…], time 28 day) of 13%. The PT ([…], time 28 day) was 12.4 s, the Plat ([…], time 28 day) was 110.6 x10_4/uL and the RBC ([…], time 28 day) was 804.8 x10_4/ul. It also gave a Ret ([…], time 28 day) of 2.2%, a WBC ([…], time 28 day) of 102.7 x10_2/uL and a KIDNEY_L ([…], time 7 day) of 1.2 g. The KIDNEY_R ([…], time 7 day) was 1.2 g, the KIDNEY_TOTAL ([…], time 7 day) was 2.3 g and the KIDNEY_L ([…], time 14 day) was 1.3 g. It also gave a KIDNEY_R ([…], time 14 day) of 1.3 g, a KIDNEY_TOTAL ([…], time 14 day) of 2.5 g and a KIDNEY_L ([…], time 28 day) of 1.3 g. The KIDNEY_R ([…], time 28 day) was 1.3 g, the KIDNEY_TOTAL ([…], time 28 day) was 2.6 g and the LIVER ([…], time 7 day) was 13.4 g. For the same compound, the LIVER ([…], time 14 day) was 13.5 g, the LIVER ([…], time 28 day) was 14.7 g and the ALP ([…], time 7 day) was 908.8 IU/L. For the same compound, the AST ([…], time 7 day) was 73.8 IU/L, the BUN ([…], time 7 day) was 16.8 mg/dL and the CRE ([…], time 7 day) was 0.4 mg/dL. It also gave a Ca ([…], time 7 day) of 10.8 mg/dL, a Cl ([…], time 7 day) of 100.8 meq/L and a DBIL ([…], time 7 day) of 0.09 mg/dL. For the same compound, the GLC ([…], time 7 day) was 205.2 mg/dL, the IP ([…], time 7 day) was 7.3 mg/dL and the K ([…], time 7 day) was 3.9 meq/L. It also gave an LDH ([…], time 7 day) of 225.8 IU/L, a Na ([…], time 7 day) of 140 meq/L and a PL ([…], time 7 day) of 168.4 mg/dL. It also gave an RALB ([…], time 7 day) of 3.3 g/dL, a TBIL ([…], time 7 day) of 0.1 mg/dL and a TC ([…], time 7 day) of 78.8 mg/dL. It also gave a TG ([…], time 7 day) of 144.6 mg/dL, a TP ([…], time 7 day) of 5.7 g/dL and a gamma-GTP ([…], time 7 day) of 0.8 IU/L. The ALP ([…], time 14 day) was 734.6 IU/L, the AST ([…], time 14 day) was 61.4 IU/L and the BUN ([…], time 14 day) was 17.2 mg/dL. The CRE ([…], time 14 day) was 0.5 mg/dL, the Ca ([…], time 14 day) was 10.6 mg/dL and the Cl ([…], time 14 day) was 102 meq/L. For the same compound, the DBIL ([…], time 14 day) was 0.08 mg/dL, the GLC ([…], time 14 day) was 222.6 mg/dL and the IP ([…], time 14 day) was 6.5 mg/dL. It also gave a K ([…], time 14 day) of 3.4 meq/L, an LDH ([…], time 14 day) of 171 IU/L and a Na ([…], time 14 day) of 139.8 meq/L. For the same compound, the PL ([…], time 14 day) was 139.6 mg/dL, the RALB ([…], time 14 day) was 3.4 g/dL and the TBIL ([…], time 14 day) was 0.1 mg/dL. The TC ([…], time 14 day) was 69 mg/dL, the TG ([…], time 14 day) was 95.4 mg/dL and the TP ([…], time 14 day) was 5.7 g/dL. The gamma-GTP ([…], time 14 day) was 1 IU/L, the ALP ([…], time 28 day) was 583 IU/L and the AST ([…], time 28 day) was 64.8 IU/L. For the same compound, the BUN ([…], time 28 day) was 16.6 mg/dL, the CRE ([…], time 28 day) was 0.5 mg/dL and the Ca ([…], time 28 day) was 10.7 mg/dL. The Cl ([…], time 28 day) was 102.6 meq/L, the DBIL ([…], time 28 day) was 0.078 mg/dL and the GLC ([…], time 28 day) was 235.4 mg/dL. It also gave an IP ([…], time 28 day) of 5.8 mg/dL, a K ([…], time 28 day) of 3.8 meq/L and an LDH ([…], time 28 day) of 142.8 IU/L. The Na ([…], time 28 day) was 141.2 meq/L, the PL ([…], time 28 day) was 137.8 mg/dL and the RALB ([…], time 28 day) was 3.4 g/dL. For the same compound, the TBIL ([…], time 28 day) was 0.1 mg/dL, the TC ([…], time 28 day) was 67.8 mg/dL and the TG ([…], time 28 day) was 104.8 mg/dL. For the same compound, the TP ([…], time 28 day) was 6 g/dL.
